Reference: patent publication US12479895B2, “C-terminal CDNF and MANF fragments, pharmaceutical compositions comprising same and uses thereof” (MyNeuroCure Oy, priority 2018, dated 2025)

Key:
dopamine neurons = experiment: Survival of TH-positive dopamine neurons in dissociated midbrain floor cultures; assay type: cell-based, mouse; details: for Fold change of survived neurons compared to neurons grown without growth factors: data of Table 3 divided by values of no factor
Procedure: To study the dopamine neurons (Yu et al., 2008; Yu and Arumae, 2008), the midbrain floors were dissected from the ventral mesencephali of 13.5-d-old NMRI strain mouse embryos. Tissues were incubated with 0.5% trypsin (ICN Biomedical), then mechanically dissociated using a large fire-polished Pasteur pipette. The neurons were grown on the poly-L-ornithine-coated (Sigma) 96-well culture plates in DMEM/F12 medium (Invitrogen) containing N2 supplement (Invitrogen) in the presence or absence of GDNF (100 ng/ml) or with CDNF, MANF, C-CDNF and C-MANF polypeptides at different concentrations for five days. Same amount of the neurons were plated to each well at the beginning of the experiments. The cultures without added neurotrophic factors served as the negative control. As the midbrain cultures contain several neuronal types, the cultures were fixed and immunostained with the antibodies to tyrosine hydroxylase (TH) (Millipore), a specific marker for the dopaminergic neurons. Images of each well were scanned by CellInsight™ and immunopositive neurons were counted by CellProfiler and CellProfiler analyst software. Data are expressed as a percentage of GDNF-maintained TH-positive neurons. All experiments were repeated at least three times on the independent cultures. The results were expressed as the mean the SEM and were tested for the significance by either one-way ANOVA and Tukey's post hoc test or by two-tailed Student's t-test. The null hypothesis was rejected at P≤0.05.

ER stressed SCG neurons = experiment: Survival of tunicamycin-treated (ER stressed) SCG sympathetic neurons after microinjection; assay type: cell-based, mice; details: for survived neurons as % compared to neurons grown in the presence of NGF: microinjected into cytoplasm, CDNF (400); for Fold change of survived neurons compared to neurons injected with PBS: data of Table 1 divided by values of PBS
Procedure: Non-neuronal cells were removed by extensive preplating. Almost pure neurons were cultured in polyornithine/laminin (Sigma)-coated 35-mm plastic dishes in the small-size standard microislands in the Neurobasal medium and B27 supplement (Invitrogen/Gibco) in the presence of 30 ng/ml mouse nerve growth factor (NGF) (Promega) for 5-6 days. NGF was deprived by extensive washing and addition of the function-blocking anti-NGF antibodies (Roche). The neurons were pressure-microinjected with special neuronal microinjection equipment (Hellman et al., 2011; Hamner et al., 2001; Lindholm et al., 2002; Sun et al., 2001; Yu et al., 2003)(Sun et al., 2001; Sun et al., 2003). For the survival assay, all neurons on the microislands were counted in the beginning (initial number) and the end (three days) of the experiment and expressed as % of initial.
Microinjection of the sympathetic neurons was performed as described earlier (Yu, L. Y., Jokitalo, E., Sun, Y. F., Mehlen, P., Lindholm, D., Saarma, M., and Arumae, U. (2003) J Cell Biol. 163, 987-997). Plasmids for CDNF have been described earlier. Briefly, newborn mouse SCG neurons were grown with NGF (Promega) for 5-6 days then the nuclei were microinjected with the expression plasmids for full-length (FL)-CDNF and C-CDNF together with a reporter plasmid for enhanced green fluorescent protein (EGFP), using vector concentration of 10 ng/ul in each experiment. […] For protein microinjection, recombinant full length (FL)-CDNF, C-CDNF proteins in PBS at 200 ng/ul were microinjected directly into the cytoplasm together with fluorescent reporter Dextran Texas Red (MW 70000 Da) (Invitrogen, Molecular Probes) that facilitates identification of the successfully injected neurons. Next day tunicamycin (2 μM) was added, and after 3 days the living fluorescent neurons were counted. Living fluorescent (EGFP-expressing or Dextran Texas Red-containing) neurons were “blindly” counted three days later and expressed as percent of initial living fluorescent neurons counted 2-3 hours after microinjection. The experiments with plasmids were repeated on independent cultures 5 times for plasmid experiment, whereas four independent protein injection experiments were performed. On average, 50-80 neurons were successfully injected per experimental group. The results were expressed as the mean±the SEM. Data of each experimental group was compared with control plasmid PCR3.1 (vector) or PBS (in the protein injection experiments) by one-way ANOVA and post hoc Dunnett's t test. The null hypothesis was rejected at p<0.05.

[1] = Table 3B (FIG. 17), AVG, 1 ng/ml, 5 days
[2] = Table 3B (FIG. 17), AVG, 10 ng/ml, 5 days
[3] = Table 3B (FIG. 17), AVG, 100 ng/ml, 5 days
[4] = Table 3B (FIG. 17), AVG, 1000 ng/ml, 5 days
[5] = Table 1B (FIG. 16), exp1, tunicamycin 2 μM, counted after 3 days
[6] = Table 1B (FIG. 16), exp2, tunicamycin 2 μM, counted after 3 days
[7] = Table 1B (FIG. 16), exp3, tunicamycin 2 μM, counted after 3 days

Sequence: TLDLASVDLRKMRVAELKQILHSWGEECRACAEKTDYVNLIQELAPKYA (listed as Homo sapiens) [pep4]
- survived neurons as % compared to neurons grown in the presence of GDNF (dopamine neurons; Table 3A (FIG. 15), AVG, 1 ng/ml, 5 days): 69.14 % GDNF
- survived neurons as % compared to neurons grown in the presence of GDNF (dopamine neurons; Table 3A (FIG. 15), AVG, 10 ng/ml, 5 days): 70.54 % GDNF
- survived neurons as % compared to neurons grown in the presence of GDNF (dopamine neurons; Table 3A (FIG. 15), AVG, 100 ng/ml, 5 days): 70.14 % GDNF
- survived neurons as % compared to neurons grown in the presence of GDNF (dopamine neurons; Table 3A (FIG. 15), AVG, 1000 ng/ml, 5 days): 76.27 % GDNF
- survived neurons as % compared to neurons grown in the presence of GDNF (dopamine neurons; Table 3A (FIG. 15), exp1, 1 ng/ml, 5 days): 61.71 % GDNF
- survived neurons as % compared to neurons grown in the presence of GDNF (dopamine neurons; Table 3A (FIG. 15), exp1, 10 ng/ml, 5 days): 64.44 % GDNF
- survived neurons as % compared to neurons grown in the presence of GDNF (dopamine neurons; Table 3A (FIG. 15), exp1, 100 ng/ml, 5 days): 69.02 % GDNF
- survived neurons as % compared to neurons grown in the presence of GDNF (dopamine neurons; Table 3A (FIG. 15), exp1, 1000 ng/ml, 5 days): 68.35 % GDNF
- survived neurons as % compared to neurons grown in the presence of GDNF (dopamine neurons; Table 3A (FIG. 15), exp2, 1 ng/ml, 5 days): 79.99 % GDNF
- survived neurons as % compared to neurons grown in the presence of GDNF (dopamine neurons; Table 3A (FIG. 15), exp2, 10 ng/ml, 5 days): 81.47 % GDNF
- survived neurons as % compared to neurons grown in the presence of GDNF (dopamine neurons; Table 3A (FIG. 15), exp2, 100 ng/ml, 5 days): 73.24 % GDNF
- survived neurons as % compared to neurons grown in the presence of GDNF (dopamine neurons; Table 3A (FIG. 15), exp2, 1000 ng/ml, 5 days): 83.39 % GDNF
- survived neurons as % compared to neurons grown in the presence of GDNF (dopamine neurons; Table 3A (FIG. 15), exp3, 1 ng/ml, 5 days): 65.71 % GDNF
- survived neurons as % compared to neurons grown in the presence of GDNF (dopamine neurons; Table 3A (FIG. 15), exp3, 10 ng/ml, 5 days): 65.71 % GDNF
- survived neurons as % compared to neurons grown in the presence of GDNF (dopamine neurons; Table 3A (FIG. 15), exp3, 100 ng/ml, 5 days): 68.14 % GDNF
- survived neurons as % compared to neurons grown in the presence of GDNF (dopamine neurons; Table 3A (FIG. 15), exp3, 1000 ng/ml, 5 days): 77.07 % GDNF
- Fold change of survived neurons compared to neurons grown without growth factors (dopamine neurons; Table 4, AVG, 1 ng/ml): 1.12 fold
- Fold change of survived neurons compared to neurons grown without growth factors (dopamine neurons; Table 4, AVG, 10 ng/ml): 1.14 fold
- Fold change of survived neurons compared to neurons grown without growth factors (dopamine neurons; Table 4, AVG, 100 ng/ml): 1.14 fold
- Fold change of survived neurons compared to neurons grown without growth factors (dopamine neurons; Table 4, AVG, 1000 ng/ml): 1.24 fold
- Fold change of survived neurons compared to neurons grown without growth factors (dopamine neurons; Table 4, exp1, 1 ng/ml): 1.08 fold
- Fold change of survived neurons compared to neurons grown without growth factors (dopamine neurons; Table 4, exp1, 10 ng/ml): 1.13 fold
- Fold change of survived neurons compared to neurons grown without growth factors (dopamine neurons; Table 4, exp1, 100 ng/ml): 1.21 fold
- Fold change of survived neurons compared to neurons grown without growth factors (dopamine neurons; Table 4, exp1, 1000 ng/ml): 1.20 fold
- Fold change of survived neurons compared to neurons grown without growth factors (dopamine neurons; Table 4, exp2, 1 ng/ml): 1.27 fold
- Fold change of survived neurons compared to neurons grown without growth factors (dopamine neurons; Table 4, exp2, 10 ng/ml): 1.29 fold
- Fold change of survived neurons compared to neurons grown without growth factors (dopamine neurons; Table 4, exp2, 100 ng/ml): 1.16 fold
- Fold change of survived neurons compared to neurons grown without growth factors (dopamine neurons; Table 4, exp2, 1000 ng/ml): 1.32 fold
- Fold change of survived neurons compared to neurons grown without growth factors (dopamine neurons; Table 4, exp3, 1 ng/ml): 1.01 fold
- Fold change of survived neurons compared to neurons grown without growth factors (dopamine neurons; Table 4, exp3, 10 ng/ml): 1.01 fold
- Fold change of survived neurons compared to neurons grown without growth factors (dopamine neurons; Table 4, exp3, 100 ng/ml): 1.05 fold
- Fold change of survived neurons compared to neurons grown without growth factors (dopamine neurons; Table 4, exp3, 1000 ng/ml): 1.19 fold
- survived neurons as % compared to neurons grown in the presence of NGF (ER stressed SCG neurons; Table 1A (FIG. 14), AVG of exp1-2, tunicamycin 2 μM): 79.15 % NGF
- survived neurons as % compared to neurons grown in the presence of NGF (ER stressed SCG neurons; Table 1A (FIG. 14), exp1, tunicamycin 2 μM, counted after 3 days): 81.25 % NGF
- survived neurons as % compared to neurons grown in the presence of NGF (ER stressed SCG neurons; Table 1A (FIG. 14), exp2, tunicamycin 2 μM, counted after 3 days): 77.05 % NGF
- Fold change of survived neurons compared to neurons injected with PBS (ER stressed SCG neurons; Table 2, AVG): 2.16 Fold to PBS
- Fold change of survived neurons compared to neurons injected with PBS (ER stressed SCG neurons; Table 2, exp1): 2.37 Fold to PBS
- Fold change of survived neurons compared to neurons injected with PBS (ER stressed SCG neurons; Table 2, exp2): 1.94 Fold to PBS

Sequence: TLDLASVDLRKMRVAELKQILHSWGEECRASAEKTDYVNLIQELAPKYA (C-CDNF peptide with single amino acid substitution) [pep10]
- survived neurons as % compared to neurons grown in the presence of GDNF (dopamine neurons; [1]): 54.25 % GDNF
- survived neurons as % compared to neurons grown in the presence of GDNF (dopamine neurons; [2]): 63.09 % GDNF
- survived neurons as % compared to neurons grown in the presence of GDNF (dopamine neurons; [3]): 68.97 % GDNF
- survived neurons as % compared to neurons grown in the presence of GDNF (dopamine neurons; [4]): 69.16 % GDNF
- survived neurons as % compared to neurons grown in the presence of NGF (ER stressed SCG neurons; [5]): 42.46 % NGF
- survived neurons as % compared to neurons grown in the presence of NGF (ER stressed SCG neurons; [6]): 45.16 % NGF
- survived neurons as % compared to neurons grown in the presence of NGF (ER stressed SCG neurons; [7]): 40.35 % NGF

Sequence: TLDLASVDLRKMRVAELKQILHSWGEECRARACAEKTDYVNLIQELAPKYA (Mutated C-CDNF peptide) [pep11]
- survived neurons as % compared to neurons grown in the presence of GDNF (dopamine neurons; [1]): 59.60 % GDNF
- survived neurons as % compared to neurons grown in the presence of GDNF (dopamine neurons; [2]): 60.76 % GDNF
- survived neurons as % compared to neurons grown in the presence of GDNF (dopamine neurons; [3]): 69.28 % GDNF
- survived neurons as % compared to neurons grown in the presence of GDNF (dopamine neurons; [4]): 70.22 % GDNF
- survived neurons as % compared to neurons grown in the presence of NGF (ER stressed SCG neurons; [5]): 46.25 % NGF
- survived neurons as % compared to neurons grown in the presence of NGF (ER stressed SCG neurons; [6]): 48.61 % NGF
- survived neurons as % compared to neurons grown in the presence of NGF (ER stressed SCG neurons; [7]): 44.64 % NGF

Sequence: TLDLASVDLRKMRVAEPKQILHSWGEECRACAEKTDYVNLIQELAPKYA (Mutated C-CDNF peptide) [pep12]
- survived neurons as % compared to neurons grown in the presence of GDNF (dopamine neurons; [1]): 68.57 % GDNF
- survived neurons as % compared to neurons grown in the presence of GDNF (dopamine neurons; [2]): 83.1 % GDNF
- survived neurons as % compared to neurons grown in the presence of GDNF (dopamine neurons; [3]): 87.93 % GDNF
- survived neurons as % compared to neurons grown in the presence of GDNF (dopamine neurons; [4]): 84.16 % GDNF
- protection of dopaminergic neurons in culture (result in words) (dopamine neurons; added to the culture medium, 5 days, TH-positive neurons counted): best protective effect
- survived neurons as % compared to neurons grown in the presence of NGF (ER stressed SCG neurons; [5]): 86.74 % NGF
- survived neurons as % compared to neurons grown in the presence of NGF (ER stressed SCG neurons; [6]): 86.15 % NGF
- survived neurons as % compared to neurons grown in the presence of NGF (ER stressed SCG neurons; [7]): 70.17 % NGF
- rescue of ER stressed SCG neurons (result in words) (ER stressed SCG neurons; protein or peptide microinjected into the cytoplasm, tunicamycin 2 μM, living fluorescent neurons counted after 3 days): rescue
